This assay is described as follows: TOR pathway RPL19A-GFP modulators, concentration series – cell-based, S. cerevisiae, flow cytometry, MLPCN hits, dose response (AID 2740).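 Note: background is signal of the same compound in parental non-GFP s288c yeast.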 As to conditions: S. cerevisiae RPL19A-GFP strain, flow cytometry fluorescence, 3 h; at 33 µM (top of the series). For orientation: A flow cytometer gives signals particle by particle.

Several values for one entry are separate records, joined by “and”; a condition that tells them apart may be missing. Equal values may be shown once. Activity calls are given as the source filed them.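 Rule for the calls: active = compounds whose fitted half-maximal concentration for changing the GFP signal is at or below a set limit; inactive = the rest.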

Turning to `COc1ccc(C(=O)NNC(=S)NC(=O)/C=C/c2cccs2)cc1`, the GFP fluorescence, lower = active (kMESF (background-subtracted)) is 47.4 (inactive).

Take `O=C(/C=C/Sc1ncn[nH]1)c1ccc(Cl)cc1`: the GFP fluorescence, lower = active (kMESF (background-subtracted)) is 29 (inactive). Take `N#Cc1ccc(N=c2ssnc2Cl)cc1`: the GFP fluorescence, lower = active (kMESF (background-subtracted)) is 42 (inactive).

On to `c1ccc(-c2cccc(-c3ccccn3)n2)nc1`, for which the GFP fluorescence, lower = active (kMESF (background-subtracted)) is 36.2 (inactive). As for `C/C(=N/NC(=O)c1ccc(C(C)(C)C)cc1)c1ccccn1`, the GFP fluorescence, lower = active (kMESF (background-subtracted)) is 45.9 (inactive). As to `Cc1ccc(-c2nc(C)sc2CC(=O)Nc2nnc(C)s2)cc1`, the GFP fluorescence, lower = active (kMESF (background-subtracted)) was 37.9 (inactive). Take `CCOc1cc(C=C2C(=O)c3ccccc3C2=O)ccc1OCC(=O)Nc1ccc(C)cc1`: the GFP fluorescence, lower = active (kMESF (background-subtracted)) is 43.8 (inactive). Turning to `O=C1C=CC(=O)N1c1ccc(OC(F)F)cc1`, the GFP fluorescence, lower = active (kMESF (background-subtracted)) was 14.7 (inactive).

In the case of `Cc1[nH][nH]c(=O)c1C(c1ccc(-c2ccc(Cl)c(Cl)c2)o1)c1c(C)[nH][nH]c1=O`, the GFP fluorescence, lower = active (kMESF (background-subtracted)) was 43.4 (inactive).

Consider `Cc1cc(NC(=O)c2cccnc2Cl)ccc1NC(=O)c1cc2ccccc2o1`, for which the GFP fluorescence, lower = active (kMESF (background-subtracted)) is 39.6 (inactive). As for `Nc1nc2ncc(CNc3ccc(C(=O)N[C@@H](CCC(=O)O)C(=O)O)cc3)nc2c(=O)[nH]1`, the GFP fluorescence, lower = active (kMESF (background-subtracted)) is 37 (inactive). Turning to `Cc1ccsc1/C=C1\C(=O)NC(=S)N(C)C1=O`, the GFP fluorescence, lower = active (kMESF (background-subtracted)) was 19.6 (inactive). Take `Oc1ccc(Br)cc1/C=N/Nc1ccccn1`: the GFP fluorescence, lower = active (kMESF (background-subtracted)) was 40.5 (inactive). With `COc1cc(C=C2C(=O)c3ccccc3C2=O)cc(OC)c1OC` the figure was 43.2 (inactive). Take `COc1ccc([C@]2(C(C)C)ON(c3ccccc3C(F)(F)F)C2=O)cc1`: the GFP fluorescence, lower = active (kMESF (background-subtracted)) is 46 (inactive).

`O=C1ON=C(c2ccc(Cl)cc2)/C1=C/c1ccc(O)cc1`: the GFP fluorescence, lower = active (kMESF (background-subtracted)) was 40.8 (inactive). On to `O=S(=O)(c1ccccc1)c1ccc(C(F)(F)F)cn1`, for which the GFP fluorescence, lower = active (kMESF (background-subtracted)) was 45.7 (inactive).

In the case of `Cc1ccc(S(=O)(=O)/N=C(\Sc2ccccc2)c2ccccc2)cc1`, the GFP fluorescence, lower = active (kMESF (background-subtracted)) is 42 (inactive).

As to `COc1ccc(CCNC2=C(Cl)C(=O)N(CCc3ccccc3)C2=O)cc1OC`, the GFP fluorescence, lower = active (kMESF (background-subtracted)) is 40 (inactive). For the molecule `O=C(COc1ccc(F)cc1Cl)Nc1nc(-c2ccccn2)cs1`, the GFP fluorescence, lower = active (kMESF (background-subtracted)) was 35.8 (inactive). Consider `O=C(O)C1Sc2[nH]c(=O)sc2C2c3cc(Br)ccc3OC(=O)C12` (stereo not drawn), for which the GFP fluorescence, lower = active (kMESF (background-subtracted)) is 37.8 (inactive). In the case of `O=C1C=C(Nc2ccc(Cl)cc2)C(=O)N1c1ccc(Cl)cc1`, the GFP fluorescence, lower = active (kMESF (background-subtracted)) is 39.1 (inactive).

On to `O=C(CCc1ccccc1)NNC(=S)NC(=O)c1ccccc1`, for which the GFP fluorescence, lower = active (kMESF (background-subtracted)) is 44.5 (inactive). Consider `CCC(=O)Nc1ccc(NC(=O)c2cc3ccccc3o2)cc1`, for which the GFP fluorescence, lower = active (kMESF (background-subtracted)) is 39.4 (inactive). With `CC(=O)c1ccc(N2CCN(C(=O)c3ccc(Br)cc3)CC2)c(F)c1` the figure was 46.1 (inactive); with `CC(=O)n1cc(C(C[N+](=O)[O-])SCCN)c2ccccc21` (stereo not drawn), 21.4 (inactive). With `COc1ccc(N2C(=O)C(Cl)=C(Nc3c(C)n(C)n(-c4ccccc4)c3=O)C2=O)cc1`, the GFP fluorescence, lower = active (kMESF (background-subtracted)) was 39.8 (inactive). Regarding `O=C(Nc1ccccc1)ON=C1CCCC1`, the GFP fluorescence, lower = active (kMESF (background-subtracted)) was 42.1 (inactive).

In the case of `C#CCOCCOCCOCCNc1nc(N2CCN(C(=O)CCCCCCCCCCNC(=O)[C@H](CCCCN)n3cc(CCCC(=O)O)nn3)CC2)nc(N2CCN(C(=O)CCCCCCCCCCNC(=O)[C@H](CCCN=C(N)N)n3cc(C[C@@H](C)CC)nn3)CC2)n1`, the GFP fluorescence, lower = active (kMESF (background-subtracted)) was 27.1 (inactive). As to `O=C(COc1ccccc1)NNC(=S)NC(=O)c1ccc(Cl)cc1Cl`, the GFP fluorescence, lower = active (kMESF (background-subtracted)) was 28 (inactive). For `Cc1ccc(C2=NOC(=O)/C2=C\c2ccc(C)o2)cc1`, the GFP fluorescence, lower = active (kMESF (background-subtracted)) is 22 (inactive). Consider `Oc1c(I)cc(Cl)c2cccnc12`, for which the GFP fluorescence, lower = active (kMESF (background-subtracted)) was 25.8 (inactive).

For `O=C1c2cccc3c([N+](=O)[O-])ccc(c23)C(=O)N1c1ccccn1`, the GFP fluorescence, lower = active (kMESF (background-subtracted)) is 55.8 (inactive). The result for `O=C(Cc1ccc(Cl)cc1)NNC(=S)NC(=O)c1cccs1` reads 45.9 (inactive); that for `Cc1c(N2C(=O)/C(=C\c3ccccc3O)SC2=S)c(=O)n(-c2ccccc2)n1C`, 38.7 (inactive); that for `COc1ccc(N2CCN(C(=O)c3ccccc3)CC2)c([N+](=O)[O-])c1`, 47.4 (inactive). Take `CC(=O)OC[C@]12CC[C@H]3[C@@](C)(CC[C@H]4C(C)(C)CCC[C@]34C)[C@@H]1C[C@H](C1=CC(=O)O[C@@H]1OC(C)=O)O2`: the GFP fluorescence, lower = active (kMESF (background-subtracted)) was 18.7 (inactive).

As for `O=C(Oc1oc(-c2ccco2)nc1C=Nc1ccc(Cl)cc1)c1ccco1`, the GFP fluorescence, lower = active (kMESF (background-subtracted)) was 52.3 (inactive). `CCn1c(=O)c(C(C)=O)c(O)c2ccccc21`: the GFP fluorescence, lower = active (kMESF (background-subtracted)) is 47 (inactive). As to `CCCc1cc(N2CCN(c3ccccn3)CC2)n2nc(C)c(-c3ccccc3)c2n1`, the GFP fluorescence, lower = active (kMESF (background-subtracted)) was 38.1 (inactive). `Cc1ccc2c(nc3s/c(=C\c4ccc(-c5ccccc5C(=O)O)o4)c(=O)n32)c1C`: the GFP fluorescence, lower = active (kMESF (background-subtracted)) is 53.5 (inactive). With `Cc1ccc(/C=N/Nc2ncc(Cl)cc2Cl)s1` the figure was 43.1 (inactive); with `CCc1ccc(OCC(=O)NNC(=S)NC(=O)C2CC2)c(Br)c1`, 45.8 (inactive). As for `O=C(c1ccccn1)c1conc1C(=O)c1ccc(Br)cc1`, the GFP fluorescence, lower = active (kMESF (background-subtracted)) is 38.5 (inactive). As to `COc1cc(N=c2ssnc2Cl)cc(OC)c1`, the GFP fluorescence, lower = active (kMESF (background-subtracted)) is 31.6 (inactive). The result for `O=[N+]([O-])c1cc(F)c2cccnc2c1O` reads 25.6 (inactive). Regarding `Cc1cccc(/C=C/C(=O)c2ccc([N+](=O)[O-])o2)c1`, the GFP fluorescence, lower = active (kMESF (background-subtracted)) is 16.1 (inactive).

Take `CCCCOc1ccc(C(=O)NNC(=S)NC(=O)CC)cc1`: the GFP fluorescence, lower = active (kMESF (background-subtracted)) was 43 (inactive). In the case of `COc1ccc(C(=O)/C=C2/C(=O)Nc3ccccc32)cc1OC`, the GFP fluorescence, lower = active (kMESF (background-subtracted)) was 43.1 (inactive). For `Cc1ccc2[nH]cc(/C=C/c3cc[n+](C)cc3)c2c1`, the GFP fluorescence, lower = active (kMESF (background-subtracted)) is 38.4 (inactive). Regarding `Cc1ccc(NC(=O)CCc2ccccc2)cc1S(=O)(=O)N1CCOCC1`, the GFP fluorescence, lower = active (kMESF (background-subtracted)) was 45.9 (inactive). Turning to `COC(=O)/C(=C/c1c[nH]c2ccccc12)[N+](=O)[O-]`, the GFP fluorescence, lower = active (kMESF (background-subtracted)) was 42.8 (inactive).

In the case of `Cc1ccsc1/C=N/Nc1ncc(Cl)cc1Cl`, the GFP fluorescence, lower = active (kMESF (background-subtracted)) was 49.1 (inactive). Take `O=c1/c(=C/c2cccc3ccccc23)sc2ncnn12`: the GFP fluorescence, lower = active (kMESF (background-subtracted)) was 50.3 (inactive). For the molecule `O=c1c2cc(Br)ccc2nc(-c2ccc([N+](=O)[O-])cc2)n1O`, the GFP fluorescence, lower = active (kMESF (background-subtracted)) was 15.6 (inactive). With `N/C(Cc1ccc(Cl)c(Cl)c1)=N\OC(=O)c1cccs1` the figure was 40.7 (inactive). Regarding `CCC(C)/C(C)=N/NC(=O)c1ccc(COc2ccc(Cl)c(C)c2)cc1` (stereo not drawn), the GFP fluorescence, lower = active (kMESF (background-subtracted)) was 44.9 (inactive). With `COc1ccc(CCNC2=C(Cl)C(=O)N(CCc3ccc(OC)c(OC)c3)C2=O)cc1OC`, the GFP fluorescence, lower = active (kMESF (background-subtracted)) was 42.6 (inactive). As for `Cc1cccc(C(=O)NNC(=S)NC(=O)c2ccccc2)c1`, the GFP fluorescence, lower = active (kMESF (background-subtracted)) was 48.3 (inactive).

Consider `Cc1cccc(N2C(=O)C(Cl)=C(Nc3c(C)n(C)n(-c4ccccc4)c3=O)C2=O)c1C`, for which the GFP fluorescence, lower = active (kMESF (background-subtracted)) was 41.7 (inactive). With `C=CCN1C(=O)/C(=C/c2ccc(-c3ccc(F)cc3)o2)SC1=S` the figure was 34.7 (inactive); with `O=C(NOC(=O)c1ccccc1)c1ccccc1`, 38.1 (inactive); with `COC(=O)CCCC1=CC2=CC(=O)C(C)(OC(=O)CCc3ccccc3)C(=O)C2=CO1` (stereo not drawn), 42.8 (inactive).

Turning to `O=C1NC(=O)N(CCc2ccc(F)cc2)C(=O)/C1=C/c1cccs1`, the GFP fluorescence, lower = active (kMESF (background-subtracted)) was 38.2 (inactive). In the case of `Cc1ccc(/C=c2\sc3nc(-c4cccs4)nn3c2=O)o1`, the GFP fluorescence, lower = active (kMESF (background-subtracted)) was 44.7 (inactive). With `Cc1ccc(S(=O)(=O)Cc2cc(F)c([N+](=O)[O-])cc2[N+](=O)[O-])cc1` the figure was 7.75 (inactive); with `O=c1[nH]c(-c2ccc(Cl)cc2)cs1`, 41.6 (inactive); with `O=C(Nc1nnc(-c2ccc3c(c2)CCCC3)o1)c1ccc(Cl)cc1Cl`, 37.2 (inactive). Take `CN1CCN(C(c2ccc(C(F)(F)F)cc2)c2ccc3cccnc3c2O)CC1` (stereo not drawn): the GFP fluorescence, lower = active (kMESF (background-subtracted)) was 29.6 (inactive).

`Nc1nc(N)c2nc(CNc3ccc(C(=O)NC(CCC(=O)O)C(=O)O)cc3)cnc2n1` (stereo not drawn): the GFP fluorescence, lower = active (kMESF (background-subtracted)) was 45.5 (inactive).

As to `Nc1c(C(=O)c2cccs2)sc2nsc(SCCN3CCCCC3)c12`, the GFP fluorescence, lower = active (kMESF (background-subtracted)) was 38.1 (inactive). With `O=[N+]([O-])c1ccc(O)c2ncccc12` the figure was 25.5 (inactive) and 19.3 (inactive); with `O=c1cc(-c2ccccc2)cc(-c2ccccc2)n1O`, 15.4 (inactive).
